Usually IC50 stands for the point on the concentration scale where inhibition reaches its midpoint. Broadly, the residual activity is the activity still measured, relative to the control.

Calls of active or inactive are those of the source. The calls are words filed in the database; no cut-off is given here.

The values that follow come from ChEMBL document CHEMBL3124916, “On the histone lysine methyltransferase activity of fungal metabolite chaetocin” (J Med Chem, 2013).

Data set [1] in a line: Induction of H2O2 generation in HBSS/Phenol Red buffer at 10 to 100 uM preincubated for 15 mins by HRP assay in presence of DTT. Format: physicochemical. The settings on record: 0.25 h.
A short description of data set [2]: Inhibition of Neurospora crassa Histone H3-K9 methyltransferase dim-5.
Data set [3] concerns the target T1, Histone-lysine N-methyltransferase EHMT2 (Homo sapiens, UniProt Q96KQ7).
T1 sequence (Q96KQ7 whole entry): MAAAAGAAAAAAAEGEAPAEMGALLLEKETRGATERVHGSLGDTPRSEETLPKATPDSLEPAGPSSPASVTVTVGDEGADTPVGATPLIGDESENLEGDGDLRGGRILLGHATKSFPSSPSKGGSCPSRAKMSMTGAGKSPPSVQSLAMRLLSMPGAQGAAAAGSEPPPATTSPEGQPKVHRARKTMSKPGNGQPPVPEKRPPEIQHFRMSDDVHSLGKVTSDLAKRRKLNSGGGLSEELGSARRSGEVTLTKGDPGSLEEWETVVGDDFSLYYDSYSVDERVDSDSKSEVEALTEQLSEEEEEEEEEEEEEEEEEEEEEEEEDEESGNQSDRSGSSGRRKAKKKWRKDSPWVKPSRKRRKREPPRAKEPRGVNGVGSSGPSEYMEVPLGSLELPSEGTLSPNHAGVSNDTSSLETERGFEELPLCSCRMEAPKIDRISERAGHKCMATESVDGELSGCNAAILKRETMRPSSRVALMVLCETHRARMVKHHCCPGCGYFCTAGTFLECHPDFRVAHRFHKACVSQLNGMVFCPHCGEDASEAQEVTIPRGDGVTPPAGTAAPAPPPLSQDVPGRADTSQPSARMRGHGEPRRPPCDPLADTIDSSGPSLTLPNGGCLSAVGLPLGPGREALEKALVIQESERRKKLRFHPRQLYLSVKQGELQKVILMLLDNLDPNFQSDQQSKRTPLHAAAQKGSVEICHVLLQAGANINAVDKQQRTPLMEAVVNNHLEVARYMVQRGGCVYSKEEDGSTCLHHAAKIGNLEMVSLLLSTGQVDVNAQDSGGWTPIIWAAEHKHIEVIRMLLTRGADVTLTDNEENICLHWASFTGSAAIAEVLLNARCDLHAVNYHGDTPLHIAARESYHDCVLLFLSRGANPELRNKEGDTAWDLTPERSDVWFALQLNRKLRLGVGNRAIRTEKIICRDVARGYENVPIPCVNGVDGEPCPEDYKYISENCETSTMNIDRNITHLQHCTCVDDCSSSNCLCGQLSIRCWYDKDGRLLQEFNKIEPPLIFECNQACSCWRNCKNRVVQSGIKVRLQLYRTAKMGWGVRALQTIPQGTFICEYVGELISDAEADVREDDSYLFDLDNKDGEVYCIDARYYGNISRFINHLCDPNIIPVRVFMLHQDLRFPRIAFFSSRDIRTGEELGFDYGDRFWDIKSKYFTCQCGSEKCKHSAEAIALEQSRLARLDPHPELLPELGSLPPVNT
In words: Inhibition of N-terminal GST-tagged recombinant human Histone-lysine N-methyltransferase G9a using S-(5'-adenosyl)-L-methionine chloride as substrate after 30 mins.

For data set [4], the target named is T2, Histone-lysine N-methyltransferase EHMT2 (Homo sapiens) (UniProt Q96KQ7).
T2 sequence (whole entry): T1 sequence (Q96KQ7 whole entry)
Kind of data set: Inhibition of N-terminal GST-tagged recombinant human Histone-lysine N-methyltransferase G9a using S-(5'-adenosyl)-L-methionine chloride as substrate assessed as residual activity at 25 uM after 30 mins; values are per cent of control.

For data set [5], the target named is T2, Histone-lysine N-methyltransferase EHMT2 (Homo sapiens). In words: Inhibition of N-terminal GST-tagged recombinant human Histone-lysine N-methyltransferase G9a using S-(5'-adenosyl)-L-methionine chloride as substrate assessed as nonspecific denaturation of enzyme at 0.05 to 25 uM preincubated for 30 mins in presence of urea and DTT.
Data set [6] shares this target. Kind of data set: Reversible inhibition of N-terminal GST-tagged recombinant human Histone-lysine N-methyltransferase G9a using S-(5'-adenosyl)-L-methionine chloride as substrate assessed as enzyme recovery at 10 fold IC50 preincubated for 30 mins followed by 100 fold dilution in presence of DTT.
For data set [7], the target named is T1, Histone-lysine N-methyltransferase EHMT2.
Description: Competitive inhibition of N-terminal GST-tagged recombinant human Histone-lysine N-methyltransferase G9a using S-(5'-adenosyl)-L-methionine chloride as substrate preincubated for 30 mins followed by substrate addition measured after 30 mins

Take `CN1C(=O)[C@@]23C[C@]4([C@]56C[C@@]78SS[C@@](CO)(C(=O)N7[C@H]5Nc5ccccc56)N(C)C8=O)c5ccccc5N[C@@H]4N2C(=O)[C@]1(CO)SS3` [CHAETOCIN]: the Activity result in data set [1] is listed as “Not Active”. For the same compound, the 50% inhibitory concentration (IC50) came out at 3 µM in data set [2] and 2.6 µM in data set [3]. Further, the residual activity in data set [4] was determined as 8%. In addition, the inhibition entry in data set [5] and in data set [6] was “Active” in each case.

Turning to `CN1C(=O)[C@@]23C[C@]4([C@]56C[C@@]78S[C@@](CO)(C(=O)N7[C@H]5Nc5ccccc56)N(C)C8=O)c5ccccc5N[C@@H]4N2C(=O)[C@]1(CO)S3`, in data set [3], the IC50 came out at 10.6 µM. The residual activity in data set [4] is 36%.

Turning to `O=C1[C@@H]2SS[C@@H](C(=O)N2Cc2ccccc2)N1Cc1ccccc1`, the IC50 was 4.9 µM in data set [3] and 5.11 µM in data set [7]. For the same compound, the residual activity in data set [4] turned out to be 19%. For the same compound, the inhibition result in data set [6] was “Active”.

Regarding `Nc1ncnc2c1ncn2[C@@H]1O[C@H](CSCC[C@H](N)C(=O)O)[C@@H](O)[C@H]1O`, the inhibition entry in data set [5] was “inactive”.
